Test results as given in ChEMBL document CHEMBL1124484, “Effects of 8-phenyl and 8-cycloalkyl substituents on the activity of mono-, di-, and trisubstituted alkylxanthines with substitution at the 1-, 3-, and 7-positions” (J Med Chem, 1989).
pKi: −log10 of the molar value.

Tests used:
Adenosine A2 receptor [1] = target: Adenosine A2 receptor (Homo sapiens, UniProt P29275+P29274)
Description: Inhibition of the stimulation by 5'-(N-ethylcarbamoyl) adenosine of adenyl cyclase via adenosine A2 receptor in human platelet membranes.

Adenosine receptor A1 [2] = target: T1, Adenosine receptor A1 (Rattus norvegicus, UniProt P25099); experiment: Inhibition of 1 nM [3H]- N6-(phenylisopropyl) adenosine binding to Adenosine A1 receptor in rat cerebral cortical membranes; type: cell membranes, Membrane
T1 sequence (P25099 whole entry): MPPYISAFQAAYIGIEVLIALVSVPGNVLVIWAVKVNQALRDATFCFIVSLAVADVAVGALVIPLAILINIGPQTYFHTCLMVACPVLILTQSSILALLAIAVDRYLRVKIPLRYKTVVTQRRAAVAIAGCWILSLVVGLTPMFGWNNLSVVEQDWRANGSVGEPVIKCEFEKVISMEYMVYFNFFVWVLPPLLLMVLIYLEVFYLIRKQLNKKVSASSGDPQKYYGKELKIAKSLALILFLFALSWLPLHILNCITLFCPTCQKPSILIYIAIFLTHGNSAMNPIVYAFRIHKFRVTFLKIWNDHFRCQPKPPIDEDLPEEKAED

Adenosine receptor A1 [3] = target: T1, Adenosine receptor A1; experiment: Inhibition of 1 nM [3H]- N6 -(phenylisopropyl) adenosine binding to Adenosine A1 receptor in rat fat cell membrane; type: cell-based
Adenosine A2 receptor [4] = target: Adenosine A2 receptor (Rattus norvegicus, UniProt P29276+P30543); settings: pc-12
Description: Inhibition of the stimulation by 5'-(N-ethylcarbamoyl) adenosine of adenyl cyclase via Adenosine A2 receptor in rat PC12 membranes

Adenosine receptor A1 [5] = target: T1, Adenosine receptor A1; experiment: Inhibition of […] nM [3H]- N6- (phenylisopropyl) adenosine binding to Adenosine A1 receptor in rat cerebral cortical membranes; I = Inactive; type: cell membranes, Membrane
Adenosine receptor A1 [6] = target: T1, Adenosine receptor A1; experiment: Inhibition of N6-(phenylisopropyl)adenosine-elicited inhibition of adenylate cyclase at Adenosine A1 receptor in rat fat cell membrane; I =inactive
Adenosine receptor A1 [7] = target: T1, Adenosine receptor A1; experiment: Inhibition of […] nM [3H]- N6- (phenylisopropyl) adenosine binding to A1 adenosine receptor in rat cerebral cortical membranes; type: cell membranes, Membrane
Adenosine receptor A1 [8] = target: T1, Adenosine receptor A1; experiment: Inhibition of N6-(phenylisopropyl)adenosine-elicited inhibition of adenylate cyclase at A1 adenosine receptor in rat fat cell membrane
Adenosine receptor A1 [9] = target: T1, Adenosine receptor A1; experiment: Inhibition of […] nM [3H]- N6- (phenylisopropyl) adenosine binding to Adenosine A1 receptor

Ki (Adenosine A2 receptor [1])	pKi (Adenosine receptor A1 [2])	pKi (Adenosine receptor A1 [3])	Ki (Adenosine A2 receptor [4])	Compound	further results
1.5 µM	–	–	–	Cn1c(=O)c2nc(-c3ccc(C(=O)O)cc3)[nH]c2n(C)c1=O	–
–	–	8.23	–	CCCn1c(=O)c2[nH]c(-c3ccccc3)nc2n(CCC)c1=O	–
0.22 µM	–	–	–	CCCn1c(=O)c2c(nc(C3CCCC3)n2C)n(CCC)c1=O	–
2.4 µM	5.64	–	–	CCCn1c(=O)c2c(nc(-c3ccccc3)n2C)n(CCC)c1=O	–
14 µM	4.24	–	–	CCCn1c(=O)[nH]c(=O)c2[nH]c(-c3ccc(C(=O)O)cc3)nc21	–
1.1 µM	6.07	–	–	CCCn1c(=O)[nH]c(=O)c2[nH]c(C3CCCCC3)nc21	–
5.5 µM	–	–	5 µM	Cn1c(=O)c2nc(-c3ccc(S(=O)(=O)O)cc3)[nH]c2n(C)c1=O	–
1.9 µM	6.85	6.37	11 µM	CCCn1c(=O)c2nc(-c3ccc(S(=O)(=O)O)cc3)[nH]c2n(CCC)c1=O	–
0.86 µM	–	–	0.25 µM	Cn1c(=O)[nH]c2[nH]c(-c3ccccc3)nc2c1=O	pKi (Adenosine receptor A1 [7]): 6.52; pKi (Adenosine receptor A1 [8]): 6.89
1.9 µM	–	–	–	Cn1c(=O)[nH]c2[nH]cnc2c1=O [1-METHYLXANTHINE]	pKi (Adenosine receptor A1 [9]): 4.77
0.02 µM	7.17	7.44	0.073 µM	CCCn1c(=O)[nH]c2[nH]c(-c3ccccc3)nc2c1=O	–
11 µM	5.01	–	–	CCCn1c(=O)[nH]c(=O)c2[nH]c(-c3ccccc3)nc21	–

The remaining lines, values behind:

Compound	Ki (Adenosine A2 receptor [1])	pKi (Adenosine receptor A1 [2])	pKi (Adenosine receptor A1 [3])	Ki (Adenosine A2 receptor [4])	further results
CC(C)CCn1c(=O)c2nc(-c3ccc(S(=O)(=O)O)cc3)[nH]c2n(CC(C)C)c1=O	0.52 µM	5.92	–	–	–
Cn1c(=O)c2nc(C3CCCCC3)[nH]c2n(C)c1=O	0.15 µM	6.96	7.39	0.45 µM	–
Cn1c(=O)c2c(nc(-c3ccccc3)n2C)n(C)c1=O	14 µM	4.82	–	–	–
CC(C)CCn1c(=O)c2nc(-c3ccccc3)[nH]c2n(CC(C)C)c1=O	2.3 µM	–	–	–	–
CCCn1c(=O)c2c(nc(-c3ccc(C(=O)O)cc3)n2C)n(CCC)c1=O	13 µM	5.32	–	–	–
CC(C)CCn1c(=O)c2nc[nH]c2n(CC(C)C)c1=O	6.5 µM	5.80	–	–	–
Cn1c(=O)c2c(nc(-c3ccc(S(=O)(=O)O)cc3)n2C)n(C)c1=O	57 µM	–	–	150 µM	Ki (Adenosine receptor A1 [5]): Not Active; Ki (Adenosine receptor A1 [6]): Not Active
CCCn1c(=O)c2c(ncn2C)n(CCC)c1=O	2.8 µM	5.47	4.92	5.3 µM	–
CCCn1c(=O)c2c(nc(C3CCCCC3)n2C)n(CCC)c1=O	0.085 µM	–	5.38	1 µM	–
Cn1c(=O)c2c(nc(-c3ccc(C(=O)O)cc3)n2C)n(C)c1=O	150 µM	4.21	–	–	–
CCCn1c(=O)[nH]c(=O)c2[nH]c(-c3ccc(S(=O)(=O)O)cc3)nc21	2.7 µM	4.24	4.48	17 µM	–
CCCn1c(=O)c2c(nc(-c3ccc(C(=O)OC)cc3)n2C)n(CCC)c1=O	26 µM	5.51	–	–	–
Cn1c(=O)c2nc(-c3ccccc3)[nH]c2n(C)c1=O [8-PHENYL THEOPHYLLINE]	1.9 µM	–	–	1.6 µM	–
Cn1c(=O)[nH]c(=O)c2[nH]cnc21 [3-METHYLXANTHINE]	240 µM	4.46	–	–	–
Cn1c(=O)c2c(nc(C3CCCC3)n2C)n(C)c1=O	2.4 µM	4.48	4.83	3.8 µM	–
CCCn1c(=O)c2nc[nH]c2n(CCC)c1=O	–	6.15	5.80	–	–
COC(=O)c1ccc(-c2nc3c(c(=O)n(C)c(=O)n3C)n2C)cc1	25 µM	4.37	–	–	–
CCCn1c(=O)c2nc(-c3ccc(C(=O)O)cc3)[nH]c2n(CCC)c1=O	–	6.70	–	–	–
Cn1c(=O)c2c(nc(C3CCCCC3)n2C)n(C)c1=O	0.19 µM	–	–	–	–
CCCn1c(=O)c2c(nc(-c3ccc(S(=O)(=O)O)cc3)n2C)n(CCC)c1=O	2.1 µM	4.82	5.31	5.6 µM	–
